Molecular target: T1, BACE2 (Rattus norvegicus, UniProt Q6IE75)
T1 construct: endogenous cellular BACE2 in the Ins1e rat cell line; endogenous in cells; host or cells: INS-TMEM27 (INS1e-derived rat insulinoma cell line with doxycycline-inducible full-length hTMEM27)
T1 sequence (Q6IE75 63-514): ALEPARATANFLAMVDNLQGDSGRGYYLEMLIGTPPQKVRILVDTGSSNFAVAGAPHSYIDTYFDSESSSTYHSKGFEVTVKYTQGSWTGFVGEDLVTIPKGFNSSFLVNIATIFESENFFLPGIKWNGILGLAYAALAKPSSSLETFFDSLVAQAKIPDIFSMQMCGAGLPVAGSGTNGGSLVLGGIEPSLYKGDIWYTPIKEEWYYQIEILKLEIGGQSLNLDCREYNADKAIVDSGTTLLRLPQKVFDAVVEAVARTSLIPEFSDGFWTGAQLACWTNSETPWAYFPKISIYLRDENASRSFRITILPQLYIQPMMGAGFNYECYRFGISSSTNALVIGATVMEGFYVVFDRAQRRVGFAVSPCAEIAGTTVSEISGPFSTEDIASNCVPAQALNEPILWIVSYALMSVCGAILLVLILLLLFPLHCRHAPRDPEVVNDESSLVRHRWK
Test: Assay for BACE inhibition by measuring cellular TMEM27 cleavage (INS-TMEM27 cells, ELISA of shed TMEM27)
Format: cell-based
Conditions: inhibition of human TMEM27 cleavage by endogenous cellular BACE2 in Ins1e rat cell line; ELISA of culture medium
From the text: Assay for BACE Inhibition by Measuring Cellular TMEM27 Cleavage
The assay uses the principle of inhibition of human TMEM27 cleavage by endogenous cellular BACE2 in the Ins1e rat cell line and shedding from the cell surface into the culture medium, followed by detection in an ELISA assay. Inhibition of BACE2 prevents the cleavage and shedding in a dose-dependent manner.
The stable cell line “INS-TMEM27” represents an INS1e-derived cell line with inducible expression (using the TetOn system) of full-length hTMEM27 in a doxycycline-dependent manner. The cells were cultured throughout the experiment in RPMI1640+Glutamax (Invitrogen) Penicillin/Streptomycin, 10% Fetal bovine serum, […], […], 100 micrograms/ml G418 and 100 microgram/ml hygromycin and were grown in adherent culture at 37° C. in a standard CO2 cell culture incubator.
INS-TMEM27 cells were seeded in 96-well plates. After 2 days in culture, BACE2 inhibitor was added in a range of concentrations as required by the assay and after a further two hours, doxycycline was added to a final concentration of 500 ng/ml. The cells were incubated for a further 46 hours and the supernatant harvested for detection of shed TMEM27.
An ELISA assay (using a pair of mouse anti-human-TMEM27 antibodies, raised against the extracellular domain of TMEM27) was used for detection of TMEM27 in the culture medium. An IC50 for BACE2 inhibition was calculated using the ELISA readout for each inhibitor concentration with standard curve-fitting software XLfit (IDBS) for the Excel spreadsheet program.

| SMILES | IC50 [nM] |
| --- | --- |
| Cc1cc(Cl)cnc1C(=O)Nc1ccc(F)c([C@@]2(C)N=C(N)OCC23CC3)c1 [Example 38, 5-Chloro-3-methyl-pyridine-2-carboxylic acid [3-((S)-6-amino-8-methyl-5-oxa-7-aza-Spiro[2.5]oct-6-en-8-yl)-4-fluoro-phenyl]amide] | 5.1 |
| C[C@]1(c2cc(NC(=O)c3ccc(F)cn3)ccc2F)N=C(N)OCC12CC2 [Example 40, 5-Fluoro-pyridine-2-carboxylic acid [3-((S)-6-amino-8-methyl-5-oxa-7-aza-spiro[2.5]oct-6-en-8-yl)-4-fluoro-phenyl]-amide] | 39 |
| C[C@]1(c2cc(NC(=O)c3ccc(C#N)cn3)ccc2F)N=C(N)OCC12CC2 [Example 41, 5-Cyano-pyridine-2-carboxylic acid [3-((S)-6-amino-8-methyl-5-oxa-7-aza-spiro[2.5]oct-6-en-8-yl)-4-fluoro-phenyl]-amide] | 52 |
| C[C@]1(c2cc(NC(=O)c3ccccn3)ccc2F)N=C(N)OCC12CC2 [Example 43, Pyridine-2-carboxylic acid [3-((S)-6-amino-8-methyl-5-oxa-7-aza-spiro[2.5]oct-6-en-8-yl)-4-fluoro-phenyl]-amide] | 18 |
| C[C@@]1(c2cc(NC(=O)C3CC3(F)F)ccc2F)CCOC(N)=N1 (stereo partly drawn) [Example 46, 2,2-Difluoro-cyclopropanecarboxylic acid [3-((S)-2-amino-4-methyl-5,6-dihydro-4H-[1,3]oxazin-4-yl)-4-fluoro-phenyl]-amide] | 70 |
| C[C@]1(c2cc(NC(=O)c3ncc(F)cc3F)ccc2F)N=C(N)OCC12CC2 [Example 49, (S)—N-(3-(6-Amino-8-methyl-5-oxa-7-azaspiro[2.5]oct-6-en-8-yl)-4-fluorophenyl)-3,5-difluoropicolinamide] | 14 |
| C[C@]1(c2cc(NC(=O)c3ncc(C(F)(F)F)cc3Cl)ccc2F)N=C(N)OCC12CC2 [Example 50, (S)—N-(3-(6-Amino-8-methyl-5-oxa-7-azaspiro[2.5]oct-6-en-8-yl)-4-fluorophenyl)-3-chloro-5-(trifluoromethyl)picolinamide] | 190 |
| C[C@]1(c2cc(NC(=O)c3ncccc3C(F)(F)F)ccc2F)N=C(N)OCC12CC2 [Example 51, (S)—N-(3-(6-Amino-8-methyl-5-oxa-7-azaspiro[2.5]oct-6-en-8-yl)-4-fluorophenyl)-3-(trifluoromethyl)picolinamide] | 73 |
| C[C@]1(c2cc(NC(=O)c3ncc(F)cc3Cl)ccc2F)N=C(N)OCC12CC2 [Example 52, (S)—N-(3-(6-Amino-8-methyl-5-oxa-7-azaspiro[2.5]oct-6-en-8-yl)-4-fluorophenyl)-3-chloro-5-fluoropicolinamide] | 16 |
| C[C@@]1(c2cc(NC(=O)C3(C(F)(F)F)CC3)ccc2F)CCOC(N)=N1 [Example 58, 1-Trifluoromethyl-cyclopropanecarboxylic acid [3-((S)-2-amino-4-methyl-5,6-dihydro-4H-[1,3]oxazin-4-yl)-4-fluoro-phenyl]-amide] | 700 |
| C[C@@]1(c2cc(NC(=O)c3n[nH]cc3Cl)ccc2F)CCOC(N)=N1 [Example 64] | 464 |
| NC1=N[C@@]2(c3cc(NC(=O)c4ccc(Cl)cn4)ccc3F)COC[C@H]2CO1 [Example 65, 5-Chloro-pyridine-2-carboxylic acid [3-((4aS,7aS)-2-amino-4a,5-dihydro-4H-furo[3,4-d][1,3]oxazin-7a-yl)-4-fluoro-phenyl]-amide] | 60 |

More lines, in order of falling IC50, values ahead:

| IC50 [nM] | SMILES |
| --- | --- |
| 9130 | CC1(C(=O)Nc2ccc(F)c([C@]3(C)CCOC(N)=N3)c2)COC1 [Example 62, 3-Methyl-oxetane-3-carboxylic acid [3-((S)-2-amino-4-methyl-5,6-dihydro-4H-[1,3]oxazin-4-yl)-4-fluoro-phenyl]-amide] |
| 6410 | Cc1c(C(=O)Nc2ccc(F)c([C@@]3(C)N=C(N)OCC34CC4)c2)noc1Cl [Example 57, (S)—N-(3-(6-Amino-8-methyl-5-oxa-7-azaspiro[2.5]oct-6-en-8-yl)-4-fluorophenyl)-5-chloro-4-methylisoxazole-3-carboxamide] |
| 830 | C[C@@]1(c2cc(NC(=O)CC(F)(F)F)ccc2F)CCOC(N)=N1 [Example 59, N-[3-((S)-2-Amino-4-methyl-5,6-dihydro-4H-[1,3]oxazin-4-yl)-4-fluoro-phenyl]-3,3,3-trifluoro-propionamide] |
| 810 | C[C@]1(c2cc(NC(=O)C3(C(F)(F)F)CC3)ccc2F)N=C(N)OCC12CC2 [Example 54, (S)—N-(3-(6-Amino-8-methyl-5-oxa-7-azaspiro[2.5]oct-6-en-8-yl)-4-fluorophenyl)-1-(trifluoromethyl)cyclopropanecarboxamide] |
| 620 | C[C@]1(c2cc(NC(=O)c3c(F)cccc3F)ccc2F)N=C(N)OCC12CC2 [Example 47, (S)—N-(3-(6-Amino-8-methyl-5-oxa-7-azaspiro[2.5]oct-6-en-8-yl)-4-fluorophenyl)-2,6-difluorobenzamide] |
| 474 | C[C@@]1(c2cc(NC(=O)c3ccc(OC(F)F)cn3)ccc2F)CCOC(N)=N1 [Example 61, 5-Difluoromethoxy-pyridine-2-carboxylic acid [3-((S)-2-amino-4-methyl-5,6-dihydro-4H-[1,3]oxazin-4-yl)-4-fluoro-phenyl]-amide] |
| 400 | C[C@@]1(c2cc(NC(=O)C(F)C(F)(F)F)ccc2F)CCOC(N)=N1 (stereo partly drawn) [Example 45, N-[3-((S)-2-Amino-4-methyl-5,6-dihydro-4H-[1,3]oxazin-4-yl)-4-fluoro-phenyl]-2,3,3,3-tetrafluoro-propionamide] |
| 210 | C[C@]1(c2cc(NC(=O)c3ccc(OC(F)F)cn3)ccc2F)N=C(N)OCC12CC2 [Example 42, 5-Difluoromethoxy-pyridine-2-carboxylic acid [3-((S)-6-amino-8-methyl-5-oxa-7-aza-Spiro[2.5]oct-6-en-8-yl)-4-fluoro-phenyl]-amide] |
| 143 | C[C@@]1(c2cc(NC(=O)c3ncccc3OCC(F)(F)F)ccc2F)CCOC(N)=N1 [Example 60, (S)—N-(3-(2-Amino-4-methyl-5,6-dihydro-4H-1,3-oxazin-4-yl)-4-fluorophenyl)-3-(2,2,2-trifluoroethoxy)picolinamide] |
| 104 | Cc1conc1C(=O)Nc1ccc(F)c([C@]2(C)CCOC(N)=N2)c1 [Example 63] |
| 91 | COc1ccc(C(=O)Nc2ccc(F)c([C@@]3(C)N=C(N)OCC34CC4)c2)nc1 [Example 39] |
| 40 | C[C@]1(c2cc(NC(=O)c3ncccc3F)ccc2F)N=C(N)OCC12CC2 [Example 37, 3-Fluoro-pyridine-2-carboxylic acid [3-((S)-6-amino-8-methyl-5-oxa-7-aza-spiro[2.5]oct-6-en-8-yl)-4-fluoro-phenyl]-amide] |
| 36 | C[C@]1(c2cc(NC(=O)c3ncccc3Cl)ccc2F)N=C(N)OCC12CC2 [Example 48, (S)—N-(3-(6-Amino-8-methyl-5-oxa-7-azaspiro[2.5]oct-6-en-8-yl)-4-fluorophenyl)-3-chloropicolinamide] |
| 7.1 | C[C@]1(c2cc(NC(=O)c3ncc(Cl)cn3)ccc2F)N=C(N)OCC12CC2 [Example 44, 5-Chloro-pyrimidine-2-carboxylic acid [3-((S)-6-amino-8-methyl-5-oxa-7-aza-spiro[2.5]oct-6-en-8-yl)-4-fluoro-phenyl]-amide] |
| 6 | C[C@]1(c2cc(NC(=O)c3ncc(Cl)cc3Cl)ccc2F)N=C(N)OCC12CC2 [Example 53, (S)—N-(3-(6-Amino-8-methyl-5-oxa-7-azaspiro[2.5]oct-6-en-8-yl)-4-fluorophenyl)-3,5-dichloropicolinamide] |
| 6 | Cn1cc(Cl)c(C(=O)Nc2ccc(F)c([C@@]3(C)N=C(N)OCC34CC4)c2)n1 [Example 56, (S)—N-(3-(6-Amino-8-methyl-5-oxa-7-azaspiro[2.5]oct-6-en-8-yl)-4-fluorophenyl)-4-chloro-1-methyl-1H-pyrazole-3-carboxamide] |

Source: US7964594B1, “Amino oxazine derivatives” (Hoffmann-La Roche Inc., priority 2009, dated 2011)
